Reference: the supplement of paper PMC10307832

Key:
Assay in all cases: relative viability (nuclei count vs DMSO), 5 days (fraction); higher = more cells survive
[1] = compound: CCN1CCN(c2ccc(Nc3cc(N(C)C(=O)Nc4c(Cl)c(OC)cc(OC)c4Cl)ncn3)cc2)CC1 [BGJ398] + CC(=O)Nc1cccc(-n2c(=O)n(C3CC3)c(=O)c3c(Nc4ccc(I)cc4F)n(C)c(=O)c(C)c32)c1 [Trametinib] (partner 0.02 µM)
Procedure, shortened: (§1)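 Lung cancer cell lines in 1536-well plates were dosed by pin tool the day after seeding, either with one drug alone or with a fixed anchor-drug dose plus five library-drug doses (not always all listed) in √10 steps. After 5 days, cells were fixed and their nuclei stained in one step (final 0.05% Triton X-100, 1% formaldehyde, 1 ug/ml Hoechst), then counted on 4× images. Relative viability is the nuclei count in treated wells divided by that in vehicle wells. Values are medians of duplicate plates.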

[2] = compound: CCN1CCN(c2ccc(Nc3cc(N(C)C(=O)Nc4c(Cl)c(OC)cc(OC)c4Cl)ncn3)cc2)CC1 [BGJ398] + COc1cc2c(Oc3ccc(NC(=O)C4(C(=O)Nc5ccc(F)cc5)CC4)cc3F)ccnc2cc1OCCCN1CCOCC1 [Foretinib] (partner 0.25 µM)
Procedure, shortened: as §1

[3] = compound: CCN1CCN(c2ccc(Nc3cc(N(C)C(=O)Nc4c(Cl)c(OC)cc(OC)c4Cl)ncn3)cc2)CC1 [BGJ398] + Nc1nc2[nH]cc(CCc3ccc(C(=O)N[C@@H](CCC(=O)O)C(=O)O)cc3)c2c(=O)[nH]1 [Pemetrexed] (partner 0.2 µM)
Procedure, shortened: as §1

[4] = compound: C1=CC2=NC=CN=C2C=C1/C=C/3\C(=O)NC(=O)S3 + Nc1nc2[nH]cc(CCc3ccc(C(=O)N[C@@H](CCC(=O)O)C(=O)O)cc3)c2c(=O)[nH]1 [Pemetrexed] (partner 0.2 µM)
Procedure, shortened: as §1

Cell Line | relative viability ([1]; first compound 0.01 µM) | relative viability ([1]; first compound 0.03162 µM) | relative viability ([1]; first compound 0.1 µM) | relative viability ([1]; first compound 0.3162 µM) | relative viability ([1]; first compound 1 µM) | relative viability ([2]; first compound 0.01 µM) | relative viability ([2]; first compound 0.03162 µM) | relative viability ([2]; first compound 0.1 µM) | relative viability ([2]; first compound 0.3162 µM) | relative viability ([2]; first compound 1 µM) | relative viability ([3]; first compound 0.01 µM) | relative viability ([3]; first compound 0.03162 µM) | relative viability ([3]; first compound 0.1 µM) | relative viability ([3]; first compound 0.3162 µM) | relative viability ([3]; first compound 1 µM) | relative viability ([4]; first compound 0.02 µM) | relative viability ([4]; first compound 0.06325 µM) | relative viability ([4]; first compound 0.2 µM) | relative viability ([4]; first compound 0.6325 µM) | relative viability ([4]; first compound 2 µM)
SK-LU-1 | 0.446 | 0.669 | 0.454 | 0.52 | 0.229 | 0.716 | 0.833 | 0.778 | 0.791 | 0.869 | 0.866 | 1 | 1.05 | 0.936 | 1.07 | 1.03 | 1.1 | 1.02 | 0.967 | 0.798
NCI-H1975 | 0.324 | 0.515 | 0.391 | 0.31 | 0.25 | 0.989 | 1.12 | 1.06 | 0.879 | 0.97 | 0.274 | 0.309 | 0.301 | 0.291 | 0.298 | 0.266 | 0.297 | 0.299 | 0.288 | 0.294
NCI-H1651 | 0.804 | 0.876 | 0.922 | 0.806 | 0.841 | 0.753 | 0.781 | 0.94 | 0.73 | 0.677 | 0.544 | 0.542 | 0.615 | 0.588 | 0.423 | 0.53 | 0.474 | 0.582 | 0.589 | 0.518
NCI-H441 | – | 0.484 | 0.52 | 0.429 | 0.436 | 0.997 | 0.902 | 0.893 | 0.998 | 1.11 | – | 0.234 | 0.243 | 0.251 | 0.288 | 0.25 | 0.276 | 0.307 | 0.229 | 0.253
LCLC-103H | 0.703 | 0.623 | 0.65 | 0.642 | 0.535 | 0.79 | 0.765 | 0.755 | 0.746 | 0.541 | 0.459 | 0.503 | 0.401 | 0.494 | 0.541 | 0.464 | 0.438 | 0.473 | 0.448 | 0.447
LCLC-97TM1 | 0.185 | 0.205 | 0.215 | 0.21 | 0.218 | 0.813 | 0.923 | 0.947 | 0.925 | 1.03 | 0.172 | 0.236 | 0.161 | 0.174 | 0.162 | 0.138 | 0.199 | 0.187 | 0.152 | 0.152
NCI-H1355 | 0.374 | 0.44 | 0.452 | 0.382 | 0.329 | 0.925 | 0.98 | 1.03 | 0.951 | 0.898 | 0.981 | 1.01 | 1.06 | 1.03 | 0.945 | 0.944 | 1.07 | 1.1 | 1 | 0.939
HOP-62 | 0.395 | 0.364 | 0.359 | 0.291 | 0.288 | 0.939 | 1.13 | 1.18 | 1.19 | 1.07 | 0.375 | 0.382 | 0.335 | 0.36 | 0.379 | 0.319 | 0.368 | 0.299 | 0.355 | 0.307
NCI-H2085 | 0.498 | 0.525 | 0.505 | 0.705 | 0.502 | 1 | 1.12 | 0.909 | 0.903 | 0.781 | 0.927 | 0.845 | 0.885 | 0.978 | 1.04 | 0.907 | 0.917 | 0.92 | 0.892 | 0.807
